Patent US11511095B2, “Portable transdermal administration patch apparatus and preparation method thereof” (CHANGZHOU HUALIAN HEALTH DRESSING LTD., priority 2017, dated 2022)

Assay: Simulation experiment of in vitro transdermal drug delivery in pig skin (Franz diffusion cell)
Type: in vitro ADME
Conditions: 37° C.
From the text: Simulation experiment of in vitro transdermal drug delivery in pig skin:
(1) pig skin with a thickness of 300-500 μm and an area of 1.0 cm^2 was selected and placed between the Franz diffusion cell supply cell and the Franz diffusion cell receiving cell. An […] side of the pig skin was oriented toward the supply cell, and then the patch apparatus was placed in the supply cell and was attached to the epidermis of the pig skin. The receiving cell was filled with phosphate buffered saline to simulate blood circulation, and the temperature in the receiving cell was maintained at 37° C. to simulate human body temperature.
(2) Set the electric quantity: 0.1 mA, the conduction time is 24 hours as desired. Press a power switch of the patch apparatus.

[1] = this method/apparatus, quantity of electric charge 2.4 mA * hour (0.1 mA, 24 hours)
[2] = traditional patch, quantity of electric charge 0 mA * hour, 24 hours

Administration dosage (μg/cm^2 skin area contacted by the drug formulation) [1]: 53.2 μg/cm^2
Administration speed [1]: 1.8 μg/(cm^2 * h)
Administration dosage (μg/cm^2 skin area contacted by the drug formulation) [2]: 1.2 μg/cm^2
Administration speed [2]: 0.1 μg/(cm^2 * h)
SMILES: Cc1nccn1CC1CCc2c(c3ccccc3n2C)C1=O (stereo not shown) [ondansetron]
